In PubChem BioAssay AID2060352 (Molecular Pharmacology Branch, DTP, NCI, 2025):
Several values for one entry are separate records, joined by “and”; a condition that tells them apart may be missing. Equal entries are not always repeated.

Test system: 616215-338-R-J1-PDC spheroid with HUVEC/MSC, viability
Assay: Anticancer human tumor 616215-338-R-J1-PDC patient-derived colon adenocarcinoma cell line growth inhibition [TAK]
Conditions: for viability, T/C: stronger effect = lower value
In short: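 Tumor cells were grown as spheroids with HUVEC and hMSC (60:25:15) and treated with targeted agents combined with TAK-243 or ipatasertib. Drugs were tested in half-log steps down from near the clinical Cmax, or from 10 microM where Cmax was unknown.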

[1] = curve of first compound, second compound 0.3 µM
[2] = curve of first compound, second compound 0.949 µM
[3] = curve of first compound, second compound 3 µM
[4] = curve of first compound, second compound 9.49 µM
[5] = curve of first compound, second compound 30 µM
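Also: spheroids exposed to drugs for 7 days before readout.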

**Q.** Which IC50 [1] does the source give for `Cn1cnc2c(F)c(Nc3ccc(Br)cc3Cl)c(C(=O)NOCCO)cc21` + CC(C)NCC(C(=O)N1CCN(c2ncnc3c2C(C)CC3O)CC1)c1ccc(Cl)cc1 here?
**A.** The IC50 was 660 nM.

**Q.** What about the IC50 [2] of the same compound?
**A.** The IC50 was 193 nM.

**Q.** What about the IC50 [3] of the same compound?
**A.** Its IC50 is 18.3 nM.

**Q.** What about the IC50 [4] of the same compound?
**A.** The IC50 was less than 9.49 nM.

**Q.** What about the IC50 [5] of the same compound?
**A.** The IC50 was less than 9.49 nM.

**Q.** What about the viability, T/C (second compound 0.3 µM, first compound 0.00949 µM) of the same compound?
**A.** The viability, T/C was 128%.

**Q.** What about the viability, T/C (second compound 0.3 µM, first compound 0.03 µM) of the same compound?
**A.** Its viability, T/C is 145%.

**Q.** And the viability, T/C (second compound 0.3 µM, first compound 0.0949 µM)?
**A.** The viability, T/C was 134%.

**Q.** And the viability, T/C (second compound 0.3 µM, first compound 0.3 µM)?
**A.** The viability, T/C was 97.5%.

**Q.** And the viability, T/C (second compound 0.3 µM, first compound 0.949 µM)?
**A.** The viability, T/C was 28.6%.

**Q.** What about the viability, T/C (second compound 0.3 µM, first compound 3 µM) of the same compound?
**A.** Its viability, T/C is 10.1%.

**Q.** And the viability, T/C (second compound 0.949 µM, first compound 0.00949 µM)?
**A.** The viability, T/C was 127%.

**Q.** And the viability, T/C (second compound 0.949 µM, first compound 0.03 µM)?
**A.** Its viability, T/C is 110%.

**Q.** What about the viability, T/C (second compound 0.949 µM, first compound 0.0949 µM) of the same compound?
**A.** The viability, T/C was 68.7%.

**Q.** What about the viability, T/C (second compound 0.949 µM, first compound 0.3 µM) of the same compound?
**A.** The viability, T/C was 37.1%.

**Q.** And the viability, T/C (second compound 0.949 µM, first compound 0.949 µM)?
**A.** The viability, T/C was 16.3%.

**Q.** And the viability, T/C (second compound 0.949 µM, first compound 3 µM)?
**A.** The viability, T/C was 1.88%.

**Q.** And the viability, T/C (second compound 3 µM, first compound 0.00949 µM)?
**A.** Its viability, T/C is 62.6%.

**Q.** What about the viability, T/C (second compound 3 µM, first compound 0.03 µM) of the same compound?
**A.** The viability, T/C was 39.6%.

**Q.** And the viability, T/C (second compound 3 µM, first compound 0.0949 µM)?
**A.** The viability, T/C was 26.2%.

**Q.** And the viability, T/C (second compound 3 µM, first compound 0.3 µM)?
**A.** Its viability, T/C is 18.2%.

**Q.** And the viability, T/C (second compound 3 µM, first compound 0.949 µM)?
**A.** Its viability, T/C is 7.02%.

**Q.** What about the viability, T/C (second compound 3 µM, first compound 3 µM) of the same compound?
**A.** The viability, T/C was 2.31%.

**Q.** What about the viability, T/C (second compound 9.49 µM, first compound 0.00949 µM) of the same compound?
**A.** Its viability, T/C is 20.1%.

**Q.** And the viability, T/C (second compound 9.49 µM, first compound 0.03 µM)?
**A.** The viability, T/C was 16.6%.

**Q.** And the viability, T/C (second compound 9.49 µM, first compound 0.0949 µM)?
**A.** Its viability, T/C is 12.3%.

**Q.** What about the viability, T/C (second compound 9.49 µM, first compound 0.3 µM) of the same compound?
**A.** Its viability, T/C is 8.61%.

**Q.** What about the viability, T/C (second compound 9.49 µM, first compound 0.949 µM) of the same compound?
**A.** Its viability, T/C is 3.42%.

**Q.** And the viability, T/C (second compound 9.49 µM, first compound 3 µM)?
**A.** The viability, T/C was 1.74%.

**Q.** What about the viability, T/C (second compound 30 µM, first compound 0.00949 µM) of the same compound?
**A.** The viability, T/C was 9.63%.

**Q.** What about the viability, T/C (second compound 30 µM, first compound 0.03 µM) of the same compound?
**A.** Its viability, T/C is 9.43%.

**Q.** And the viability, T/C (second compound 30 µM, first compound 0.0949 µM)?
**A.** Its viability, T/C is 6.77%.

**Q.** What about the viability, T/C (second compound 30 µM, first compound 0.3 µM) of the same compound?
**A.** Its viability, T/C is 4.12%.

**Q.** What about the viability, T/C (second compound 30 µM, first compound 0.949 µM) of the same compound?
**A.** The viability, T/C was 1.89%.

**Q.** What about the viability, T/C (second compound 30 µM, first compound 3 µM) of the same compound?
**A.** The viability, T/C was 1.35%.

**Q.** Which IC50 [1] does the source give for `COC1CC2CCC(C)C(O)(O2)C(=O)C(=O)N2CCCCC2C(=O)OC(C(C)CC2CCC(OCCO)C(OC)C2)CC(=O)C(C)C=C(C)C(O)C(OC)C(=O)C(C)CC(C)C=CC=CC=C1C` (configuration not stated) + CC(C)NCC(C(=O)N1CCN(c2ncnc3c2C(C)CC3O)CC1)c1ccc(Cl)cc1 here?
**A.** Its IC50 is greater than 100 nM.

**Q.** And the IC50 [2]?
**A.** The IC50 was greater than 100 nM.

**Q.** What about the IC50 [3] of the same compound?
**A.** Its IC50 is 2.28 nM.

**Q.** And the IC50 [4]?
**A.** The IC50 was less than 0.316 nM.

**Q.** What about the IC50 [5] of the same compound?
**A.** The IC50 was less than 0.316 nM.

**Q.** And the viability, T/C (second compound 0.3 µM, first compound 0.000316 µM)?
**A.** The viability, T/C was 133%.

**Q.** What about the viability, T/C (second compound 0.3 µM, first compound 0.001 µM) of the same compound?
**A.** Its viability, T/C is 119%.

**Q.** What about the viability, T/C (second compound 0.3 µM, first compound 0.00316 µM) of the same compound?
**A.** The viability, T/C was 137%.

**Q.** What about the viability, T/C (second compound 0.3 µM, first compound 0.01 µM) of the same compound?
**A.** Its viability, T/C is 129%.

**Q.** And the viability, T/C (second compound 0.3 µM, first compound 0.0316 µM)?
**A.** The viability, T/C was 130%.

**Q.** And the viability, T/C (second compound 0.3 µM, first compound 0.1 µM)?
**A.** Its viability, T/C is 104%.

**Q.** And the viability, T/C (second compound 0.949 µM, first compound 0.000316 µM)?
**A.** Its viability, T/C is 119%.

**Q.** What about the viability, T/C (second compound 0.949 µM, first compound 0.001 µM) of the same compound?
**A.** The viability, T/C was 125%.

**Q.** And the viability, T/C (second compound 0.949 µM, first compound 0.00316 µM)?
**A.** Its viability, T/C is 111%.

**Q.** What about the viability, T/C (second compound 0.949 µM, first compound 0.01 µM) of the same compound?
**A.** The viability, T/C was 97.1%.

**Q.** And the viability, T/C (second compound 0.949 µM, first compound 0.0316 µM)?
**A.** Its viability, T/C is 82.5%.

**Q.** What about the viability, T/C (second compound 0.949 µM, first compound 0.1 µM) of the same compound?
**A.** Its viability, T/C is 80.3%.

**Q.** What about the viability, T/C (second compound 3 µM, first compound 0.000316 µM) of the same compound?
**A.** The viability, T/C was 61.5%.

**Q.** What about the viability, T/C (second compound 3 µM, first compound 0.001 µM) of the same compound?
**A.** Its viability, T/C is 59.3%.

**Q.** And the viability, T/C (second compound 3 µM, first compound 0.00316 µM)?
**A.** The viability, T/C was 45.6%.

**Q.** And the viability, T/C (second compound 3 µM, first compound 0.01 µM)?
**A.** Its viability, T/C is 38.3%.

**Q.** And the viability, T/C (second compound 3 µM, first compound 0.0316 µM)?
**A.** Its viability, T/C is 35.8%.

**Q.** What about the viability, T/C (second compound 3 µM, first compound 0.1 µM) of the same compound?
**A.** Its viability, T/C is 32.1%.

**Q.** What about the viability, T/C (second compound 9.49 µM, first compound 0.000316 µM) of the same compound?
**A.** The viability, T/C was 23.1%.

**Q.** What about the viability, T/C (second compound 9.49 µM, first compound 0.001 µM) of the same compound?
**A.** Its viability, T/C is 20%.

**Q.** And the viability, T/C (second compound 9.49 µM, first compound 0.00316 µM)?
**A.** Its viability, T/C is 17.2%.

**Q.** And the viability, T/C (second compound 9.49 µM, first compound 0.01 µM)?
**A.** The viability, T/C was 16.2%.

**Q.** What about the viability, T/C (second compound 9.49 µM, first compound 0.0316 µM) of the same compound?
**A.** Its viability, T/C is 15.8%.

**Q.** And the viability, T/C (second compound 9.49 µM, first compound 0.1 µM)?
**A.** The viability, T/C was 14.9%.

**Q.** And the viability, T/C (second compound 30 µM, first compound 0.000316 µM)?
**A.** Its viability, T/C is 9.82%.

**Q.** And the viability, T/C (second compound 30 µM, first compound 0.001 µM)?
**A.** Its viability, T/C is 9.86%.

**Q.** And the viability, T/C (second compound 30 µM, first compound 0.00316 µM)?
**A.** The viability, T/C was 10.5%.

**Q.** What about the viability, T/C (second compound 30 µM, first compound 0.01 µM) of the same compound?
**A.** Its viability, T/C is 9.81%.

**Q.** And the viability, T/C (second compound 30 µM, first compound 0.0316 µM)?
**A.** The viability, T/C was 8.34%.

**Q.** And the viability, T/C (second compound 30 µM, first compound 0.1 µM)?
**A.** Its viability, T/C is 7.96%.

**Q.** Which viability, T/C (compound 0.0316 µM) does the source give for `CC(C)(C)c1nc(-c2cccc(NS(=O)(=O)c3c(F)cccc3F)c2F)c(-c2ccnc(N)n2)s1` here?
**A.** The viability, T/C was 104% and 106%.

**Q.** What about the viability, T/C (compound 0.1 µM) of the same compound?
**A.** Its viability, T/C is 123% and 114%.

**Q.** And the viability, T/C (compound 0.316 µM)?
**A.** Its viability, T/C is 132% and 107%.

**Q.** What about the viability, T/C (compound 1 µM) of the same compound?
**A.** Its viability, T/C is 119% and 95.5%.

**Q.** What about the viability, T/C (compound 3.16 µM) of the same compound?
**A.** Its viability, T/C is 73.2% and 54.6%.

**Q.** And the viability, T/C (compound 10 µM)?
**A.** Its viability, T/C is 18.3% and 28.5%.

**Q.** What about the IC50 (curve of compound) of the same compound?
**A.** The IC50 was 5150 nM and 3870 nM.
